{"source": "paper PMC8822458", "about": "“Synthesis and bioactivity of pyrrole-conjugated phosphopeptides” (Beilstein Journal of Organic Chemistry, 2022)", "key": {"HeLa cells": {"tested_on": "HeLa cells", "assay": "MTT cell viability of HeLa cells", "method": "We examined the cytotoxicity of the synthesized compounds by incubating them with HeLa cells because HeLa cells overexpress ALP and are widely available. By incubating 200 μM of each compound with HeLa cells for 24 hours, we employed MTT assay to determine the cell viability of the HeLa cells. […]\nS3. Cel l culture and cell viability\nHeLa cell line was purchased from American Type Culture Collection (ATCC, Manassas, VA, USA). HeLa cells were cultured in MEM medium with 100 U mL-1 penicillin and 100 μg mL-1 streptomycin. Cells were cultured at 37 °C in a humidified atmosphere of 5% CO 2.\nMTT assay was used to determine the cytotoxicity of the compounds against HeLa cells.\nCells were seeded in 96-well plate at 1.0 × 10^5 cells/well for 24 hours followed by culture medium removal. Fresh culture medium containing different concentrations of compounds were then added. After incubated at 37 °C for 24/48/72 hours, the culture medium with compounds were replaced by fresh culture m edium plus 10 μL of MTT solution (5 mg/mL). After incubated at 37 °C for another 4 hours, 100 μL of SDS-HCl solution was added to stop the reduction and dissolve formazan formed. A DTX880 […]\nMultimode Detector was used to measure the absorbance of each well at 595 nm, and cell viability was calculated as percentage relative to untreated cells. Data were […]"}, "[1]": {"assay": "Circular dichroism of assemblies before and after ALP", "format": "physicochemical", "conditions": "circular dichroism before and after ALP (Figure S34)", "excerpt": "In addition to the TEM images, we used circular dichroism (CD) to reveal the secondary structures of the assemblies before and after enzymatic action."}, "[2]": {"parameters": "method as in PMID 25230147", "conditions": "TEM, ALP 0.5 U/mL, PBS buffer pH 7.4; cited from earlier work"}, "[3]": {"assay": "TEM morphology of peptide assemblies before and after ALP", "format": "physicochemical", "conditions": "400 μM and 200 μM, PBS buffer pH 7.4", "from_the_text": "Figure 3 A) TEM images of 1 before and after addition of ALP (0.5 U/mL) in PBS buffer (pH 7.4). Scale bar is 100 nm. Figure 3A was reprinted with permission from https://pubs.acs.org/doi/10.1021/bm5010355, Copyright 2014 American Chemical Society. This content is not subjected to CC-BY 4.0. Permission requests related to the material excerpted should be directed to the ACS. […] Scale bar is 200 nm.\nFigure S1. Cell viability of HeLa cells treated with different compounds.\nS4. TEM sample preparation\n400-mesh copper grids coated with continuous thick carbon film (~35 nm) were glow discharged, on which 3 μL of samples were placed. After washed with ddH2O and uranyl acetate (UA), the sample-loaded grids were stained with UA. The residual UA was removed by filter paper and then air-dried."}}, "note": "Read-outs that look alike come from different tables or passages of the source. *1 amine or outer side, *2 acyl side, *3 side chain or, on linkers, in order; H or OH if unused. Where a SMILES comes first, the peptide text is derived from it. [ ]: non-standard residue; d: D form. The star is where a group is joined. d(pY) = N[C@H](Cc1ccc(OP(=O)(O)O)cc1)C(=O)O; pY = N[C@@H](Cc1ccc(OP(=O)(O)O)cc1)C(=O)O; d(pS) = N[C@H](COP(=O)(O)O)C(=O)O; Guanidinoacetyl = N=C(N)NCC(=O)*; X2 = Cn1cc(N[*:1])cc1C(=O)[*:2]; X1 = Cn1cc(N)cc1C(=O)*"}
{"smiles": "Cn1cc(N)cc1C(=O)NCC(=O)NCC(=O)NCC(=O)N[C@H](Cc1ccccc1)C(=O)N[C@H](Cc1ccccc1)C(=O)N[C@H](Cc1ccc(OP(=O)(O)O)cc1)C(=O)O", "note": "[2f, Py-GGGffpy] (X1-GGG[dF][dF][d(pY)]-OH)", "values": [{"measurement": "Cell viability of HeLa cells", "setting": "HeLa cells; 24 h, 200 μM", "result": 92.8, "unit": "%"}]}
{"smiles": "Cn1cc(NC(=O)c2cc(N)cn2C)cc1C(=O)NCC(=O)NCC(=O)NCC(=O)N[C@@H](Cc1ccccc1)C(=O)N[C@@H](Cc1ccccc1)C(=O)N[C@@H](Cc1ccc(OP(=O)(O)O)cc1)C(=O)O", "note": "[3a] (X1-[X2]GGGFF[pY]-OH)", "values": [{"measurement": "Cell viability of HeLa cells", "setting": "HeLa cells; 24 h, 200 μM", "result": 86.0, "unit": "%"}]}
{"smiles": "Cn1cc(NC(=O)CNC(=N)N)cc1C(=O)NCC(=O)NCC(=O)NCC(=O)N[C@H](Cc1ccccc1)C(=O)N[C@H](Cc1ccccc1)C(=O)N[C@H](Cc1ccc(OP(=O)(O)O)cc1)C(=O)O", "note": "[10a] (Guanidinoacetyl-[X2]GGG[dF][dF][d(pY)]-OH)", "values": [{"measurement": "Cell viability of HeLa cells", "setting": "HeLa cells; 24 h, 200 μM", "result": "about 70%"}]}
{"smiles": "O=C(Cc1ccc2ccccc2c1)N[C@H](Cc1ccccc1)C(=O)N[C@H](Cc1ccccc1)C(=O)N[C@H](Cc1ccc(OP(=O)(O)O)cc1)C(=O)O", "note": "[compound 1, Nap-ffpy, reference compound]", "values": [{"measurement": "Change of CD signal upon ALP treatment", "setting": "[1]", "result": "significant change"}, {"measurement": "Inhibition / compatibility with HeLa cells (in words)", "setting": "HeLa cells; 400 μM", "result": "significantly inhibits"}, {"measurement": "Inhibition of HeLa cell proliferation (in words)", "setting": "HeLa cells; MTT, 200 μM, day 3", "result": "begins to reduce cell viability"}, {"measurement": "Inhibition of HeLa cell proliferation (in words)", "setting": "HeLa cells; MTT, concentrations lower than 100 μM, over 3 days", "result": "hardly inhibits"}, {"measurement": "Change of morphology of the assemblies after ALP", "setting": "[2]", "result": "morphological transition from nanoparticles of 1 to networks of nanofibers"}]}
{"smiles": "Cn1cc(N)cc1C(=O)Nc1cc(C(=O)Nc2cc(C(=O)N[C@H](Cc3ccccc3)C(=O)N[C@H](Cc3ccccc3)C(=O)N[C@H](Cc3ccc(OP(=O)(O)O)cc3)C(=O)O)n(C)c2)n(C)c1", "note": "[2b]", "values": [{"measurement": "Cell viability of HeLa cells", "setting": "HeLa cells; 24 h, 200 μM", "result": 142.6, "unit": "%"}]}
{"smiles": "Cn1cc(NC(=O)OC(C)(C)C)cc1C(=O)Nc1cc(C(=O)N[C@H](Cc2ccccc2)C(=O)N[C@H](Cc2ccccc2)C(=O)N[C@H](Cc2ccc(OP(=O)(O)O)cc2)C(=O)O)n(C)c1", "note": "[compound 9]", "values": [{"measurement": "Cell viability of HeLa cells", "setting": "HeLa cells; 24 h, 200 μM", "result": "about 70%"}]}
{"smiles": "Cn1cc(NC(=O)c2cc(NC(=O)c3cc(N)cn3C)cn2C)cc1C(=O)NCC(=O)NCC(=O)NCC(=O)N[C@@H](Cc1ccccc1)C(=O)N[C@@H](Cc1ccccc1)C(=O)N[C@@H](Cc1ccc(OP(=O)(O)O)cc1)C(=O)O", "note": "[3b] (X1-[X2][X2]GGGFF[pY]-OH)", "values": [{"measurement": "Cell viability of HeLa cells", "setting": "HeLa cells; 24 h, 200 μM", "result": 97.2, "unit": "%"}]}
{"smiles": "Cn1cc(NC(=O)c2cc(N)cn2C)cc1C(=O)NCC(=O)NCC(=O)NCC(=O)N[C@H](Cc1ccccc1)C(=O)N[C@H](Cc1ccccc1)C(=O)N[C@H](COP(=O)(O)O)C(=O)O", "note": "[4a] (X1-[X2]GGG[dF][dF][d(pS)]-OH)", "values": [{"measurement": "Change of CD signal upon ALP treatment", "setting": "[1]", "result": "merely slight changes"}, {"measurement": "Cell viability of HeLa cells", "setting": "HeLa cells; MTT, 200 μM, 24 h, 37 °C, absorbance 595 nm, relative to untreated cells, n = 3 wells", "result": 69.2, "unit": "%"}, {"measurement": "Cell viability of HeLa cells", "setting": "HeLa cells; MTT, 400 μM, day 1, n = 3 wells", "result": 72.3, "unit": "%"}, {"measurement": "Inhibition of HeLa cell proliferation (in words)", "setting": "HeLa cells; MTT, 20 to 400 μM, day 2 and 3", "result": "largely vanishes"}, {"measurement": "Change of morphology of the assemblies after ALP", "setting": "[3]; 1 U/mL ALP, 24 h", "result": "little change in the morphology"}, {"measurement": "Morphology of the assemblies before ALP", "setting": "[3]", "result": "networks of nanoparticles"}]}
{"smiles": "Cn1cc(NC(=O)c2cc(NC(=O)CNC(=N)N)cn2C)cc1C(=O)NCC(=O)NCC(=O)NCC(=O)N[C@H](Cc1ccccc1)C(=O)N[C@H](Cc1ccccc1)C(=O)N[C@H](Cc1ccc(OP(=O)(O)O)cc1)C(=O)O", "note": "[10b] (Guanidinoacetyl-[X2][X2]GGG[dF][dF][d(pY)]-OH)", "values": [{"measurement": "Cell viability of HeLa cells", "setting": "HeLa cells; 24 h, 200 μM", "result": "about 70%"}]}
